Assays:
[1] = test system: rat model of disuse muscle atrophy; assay: Test for muscle atrophy inhibition effect in rat model of disuse muscle atrophy (hindlimb suspension); format: in vivo, Wistar rats
Description: Whether muscle atrophy was inhibited by orally administering the compound represented by Structural Formula (1) (using the compound available from Cayman Chemical) to a rat model of disuse muscle atrophy for 14 days was tested according to the following testing method.
Seven week-old male Wistar (Crlj: WI) rats were acquired from Charles River Laboratories Japan, Inc., and were bred in the environment where a temperature was 23±3° C. and the humidity was 55±15% and in a cycle of 12 hours in light and 12 hours in dark. The rats were acclimated for one week before use, and were allowed to freely intake a solid feed (CRF-1, available from Oriental Yeast Co., Ltd.) and tap water.
After one week of acclimation, the Wistar rats were randomly divided into groups of eight. The rats were bred for 14 days in the state where the tail of each rat was held with clips so that the rat's hind legs were raised above the floor according to the method of Morey-Holton E R et al. During the breeding period, the rats were allowed to move around within a case with their forelimbs, and were allowed to freely intake water and a feed.
The test groups were (1) a normal group (without hindlimb suspension), (2) a control group (hindlimb suspension+0 mg/kg of the compound represented by Structural Formula (1)), (3) a group with the compound represented by Structural Formula (1) (hindlimb suspension+125 mg/kg of the compound represented by Structural Formula (1)).
The compound represented by Structural Formula (1) was dissolved in water, and the solution was administered by oral gavage every day for 14 days. Water was administered to the control group.
At the end of the test, the rats were euthanized by exsanguination under isoflurane anesthesia. Then, the soleus muscles were removed and the muscle weight was measured. In Table 2, the soleus muscle weight is an average value.

[2] = test system: skeletal muscle-derived myoblasts (C2C12) of mice; assay: Test for myoblast-proliferation promotion effect (MTT assay); format: cell-based; details: for Myoblast proliferation promotion rate (%): cultured 2 days, MTT, rate = A/B×100 vs cells without test sample
Description: A test on a myoblast proliferation effect of the compound represented by Structural Formula (1) (using the compound available from Sigma-Aldrich) was performed according to the following testing method.
After culturing skeletal muscle-derived myoblasts (C2C12) of mice in a Dulbecco's modified eagle medium (DMEM) containing 10% FBS, the cells were collected by trypsinization. The collected cells were diluted with a 5% FBS-containing DMEM so that a concentration of the cells was to be 2.0×10^4 cells/mL. Then, the dilution was seeded by 100 μL per well in a 96-well plate, followed by culturing for 6 hours. After completing the culture, a test sample dissolved in a 5% FBS-containing DMEM (see Table 1 below for the final concentration) was added by 100 μL per well, followed by culturing for 2 days. Even in the case where the test sample was not added, culturing was performed in the same manner except that the test sample was not added.
The myoblast-proliferation promotion effect was measured using an MTT assay. After completing the culture, the medium was removed, and MTT dissolved in a PBS buffer solution (PBS(−)) at a final concentration of 0.4 mg/mL was added by 100 μL per well. After culturing for 2 hours, blue formazan generated within the cells was extracted with 100 μL of 2-propanol. After the extraction, absorbance at a wavelength of 570 nm was measured. In addition, absorbance at a wavelength of 650 nm was measured as turbidity. The difference between the absorbance at the wavelength of 570 nm and the absorbance at the wavelength of 650 nm was used to determine an amount of blue formazan generated.
The myoblast proliferation promotion rate (%) was calculated from the obtained results according to the following equation.
Myoblast proliferation promotion rate (%)=A/B×100
In the equation above, A and B are as follows. • A: An amount of blue formazan generated in the cells to which the test sample was added. • B: An amount of blue formazan generated in the cells to which the test sample was not added.

O=C(O)CCc1ccc(O)c(O)c1 [3,4-dihydroxyhydrocinnamic acid]
Soleus muscle weight ([1]; hindlimb-suspended male Wistar rats, 125 mg/kg oral gavage daily for 14 days, average value (normal group 359.1, control group 139.3)): 151.3
Soleus muscle weight compared to the control group (in words) ([1]; hindlimb-suspended rats, 125 mg/kg oral, 14 days): increased compared to the control group
Muscle atrophy inhibition (in words) ([1]; rat model of disuse muscle atrophy, 125 mg/kg oral, 14 days): inhibited muscle atrophy
Myoblast-proliferation promotion effect (in words) ([2]; conclusion from Table 1): excellent myoblast-proliferation promotion effect
Myoblast proliferation promotion rate (%) ([2]; test sample 25 μmol/L): 106.4%
Myoblast proliferation promotion rate (%) ([2]; test sample 100 μmol/L): 108.0%

Reference: patent US20250302784A1, “MYOBLAST PROLIFERATION PROMOTER AND MYOBLAST-PROLIFERATION PROMOTING COMPOSITION, AND MUSCLE ATROPHY INHIBITOR AND MUSCLE-ATROPHY INHIBITING COMPOSITION” (MARUZEN PHARMACEUTICALS CO., LTD., priority 2022, published 2025)
